# Values of other authors as cited in patent publication US12311052B2, “Mitochondrial performance enhancement nanoemulsion method” (Quicksilver Scientific, Inc., priority 2017, dated 2025).
# Where two headings read alike, the source gives them in different places.
# Assays:
# [1] = oral administration; extensively metabolized to glucuronide conjugate by liver and intestine
# [2] = consumed orally
# Hepa1-6 mouse cells = conditions: 10-30 μM PQQ for 24-48 hours
# cells = conditions: inhibitors rotenone, 3-nitropropionic acid, antimycin A, sodium azide
# mice = conditions: PQQ deficient mice compared to PQQ supplemented mice
smiles,measurement,setting,value
"Oc1ccc(/C=C/c2cc(O)cc(O)c2)cc1 [resveratrol, 3,5,4′-trihydroxy-trans-stilbene]",bioavailability,[1],about 0.5%
"COC1=C(OC)C(=O)C(C/C=C(\C)CC/C=C(\C)CC/C=C(\C)CC/C=C(\C)CC/C=C(\C)CC/C=C(\C)CC/C=C(\C)CC/C=C(\C)CC/C=C(\C)CCC=C(C)C)=C(C)C1=O [CoQ10, Coenzyme Q10]",bioavailability,[2],~10%
"O=C(O)c1cc(C(=O)O)c2c(n1)C(=O)C(=O)c1cc(C(=O)O)[nH]c1-2.[Na].[Na] [PQQ, Pyrroloquinoline quinone disodium salt]","citrate synthase and cytochrome c oxidase activity, Mitotracker staining, mitochondrial DNA content, cellular oxygen respiration",Hepa1-6 mouse cells,"increased citrate synthase and cytochrome c oxidase activity, Mitotracker staining, mitochondrial DNA content, and cellular oxygen respiration"
same,protection of cells from mitochondrial inhibition,cells,protect cells from mitochondrial inhibition
same,reduction in the relative amount of mitochondria in the liver,mice,20 to 30%
